Measurements: ChEMBL document CHEMBL3875174, “Further investigation of Paprotrain: Towards the conception of selective and multi-targeted CNS kinase inhibitors” (Eur J Med Chem, 2016)

Key:
[1] = target: Dual specificity protein kinase CLK1 (Homo sapiens, UniProt P49759); test: Inhibition of GST-tagged human recombinant CLK1 expressed in Escherichia coli using RS peptide as substrate incubated for 30 mins in presence of [gamma-33 P] ATP by liquid scintillation counting analysis
[2] = target: Dual specificity protein kinase CLK4 (Homo sapiens, UniProt Q9HAZ1); test: Inhibition of GST-tagged human recombinant CLK4 expressed in Escherichia coli using RS peptide as substrate incubated for 30 mins in presence of [gamma-33 P] ATP by liquid scintillation counting analysis
Sequence of Dual specificity protein kinase CLK4 (Q9HAZ1 whole entry): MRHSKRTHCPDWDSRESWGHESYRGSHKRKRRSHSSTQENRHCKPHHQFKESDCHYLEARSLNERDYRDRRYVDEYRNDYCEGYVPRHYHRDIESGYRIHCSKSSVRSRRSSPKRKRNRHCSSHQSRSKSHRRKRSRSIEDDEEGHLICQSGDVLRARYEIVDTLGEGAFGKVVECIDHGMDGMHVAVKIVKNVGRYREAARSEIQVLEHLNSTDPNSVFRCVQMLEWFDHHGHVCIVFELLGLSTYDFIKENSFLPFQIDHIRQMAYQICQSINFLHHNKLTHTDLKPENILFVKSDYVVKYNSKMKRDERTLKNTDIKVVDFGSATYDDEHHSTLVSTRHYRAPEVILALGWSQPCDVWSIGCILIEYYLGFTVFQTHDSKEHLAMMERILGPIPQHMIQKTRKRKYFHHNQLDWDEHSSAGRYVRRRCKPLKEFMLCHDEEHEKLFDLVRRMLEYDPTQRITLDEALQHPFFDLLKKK

[3] = target: Dual specificity protein kinase CLK3 (Homo sapiens, UniProt P49761); test: Inhibition of GST-tagged human recombinant CLK3 expressed in Escherichia coli using RS peptide as substrate incubated for 30 mins in presence of [gamma-33 P] ATP by liquid scintillation counting analysis
Sequence of Dual specificity protein kinase CLK3 (P49761 whole entry): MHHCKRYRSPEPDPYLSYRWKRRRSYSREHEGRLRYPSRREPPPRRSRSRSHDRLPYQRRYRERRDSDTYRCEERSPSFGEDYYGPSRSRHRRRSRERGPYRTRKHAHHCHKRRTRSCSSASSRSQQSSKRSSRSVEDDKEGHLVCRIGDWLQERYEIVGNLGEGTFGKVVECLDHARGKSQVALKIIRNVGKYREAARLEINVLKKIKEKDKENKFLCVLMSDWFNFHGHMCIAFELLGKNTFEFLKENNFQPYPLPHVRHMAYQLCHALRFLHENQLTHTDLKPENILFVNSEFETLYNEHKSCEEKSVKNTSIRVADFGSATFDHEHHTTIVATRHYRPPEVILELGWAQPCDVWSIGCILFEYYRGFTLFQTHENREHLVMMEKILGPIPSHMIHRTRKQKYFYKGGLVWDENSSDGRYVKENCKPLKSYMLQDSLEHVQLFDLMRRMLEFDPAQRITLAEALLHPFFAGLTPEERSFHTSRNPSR

[4] = target: Dual specificity tyrosine-phosphorylation-regulated kinase 1A (Homo sapiens, UniProt Q13627); test: Inhibition of GST-tagged human recombinant DYRK1A expressed in Escherichia coli using RS peptide as substrate incubated for 30 mins in presence of [gamma-33 P] ATP by liquid scintillation counting analysis
[5] = target: Dual specificity protein kinase CLK2 (Homo sapiens, UniProt P49760); test: Inhibition of GST-tagged human recombinant CLK2 expressed in Escherichia coli using RS peptide as substrate incubated for 30 mins in presence of [gamma-33 P] ATP by liquid scintillation counting analysis
Sequence of Dual specificity protein kinase CLK2 (P49760 whole entry): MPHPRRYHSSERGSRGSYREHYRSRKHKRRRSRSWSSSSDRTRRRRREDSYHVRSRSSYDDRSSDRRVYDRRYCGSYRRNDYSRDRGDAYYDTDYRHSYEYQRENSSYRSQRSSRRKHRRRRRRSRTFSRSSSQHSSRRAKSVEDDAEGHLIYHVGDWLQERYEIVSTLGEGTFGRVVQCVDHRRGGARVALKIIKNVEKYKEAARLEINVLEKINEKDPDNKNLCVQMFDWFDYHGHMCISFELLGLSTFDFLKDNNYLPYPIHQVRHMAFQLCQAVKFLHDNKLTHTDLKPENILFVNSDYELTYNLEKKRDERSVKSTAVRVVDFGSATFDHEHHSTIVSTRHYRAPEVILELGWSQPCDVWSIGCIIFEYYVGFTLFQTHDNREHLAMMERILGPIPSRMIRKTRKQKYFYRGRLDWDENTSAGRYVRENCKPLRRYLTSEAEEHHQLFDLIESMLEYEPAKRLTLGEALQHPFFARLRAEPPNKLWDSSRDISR

[6] = target: Cyclin-dependent kinase 5/CDK5 activator 1 (Homo sapiens, UniProt Q00535); type: protein-complex assay
Sequence of Cyclin-dependent kinase 5/CDK5 activator 1 (Q00535 whole entry): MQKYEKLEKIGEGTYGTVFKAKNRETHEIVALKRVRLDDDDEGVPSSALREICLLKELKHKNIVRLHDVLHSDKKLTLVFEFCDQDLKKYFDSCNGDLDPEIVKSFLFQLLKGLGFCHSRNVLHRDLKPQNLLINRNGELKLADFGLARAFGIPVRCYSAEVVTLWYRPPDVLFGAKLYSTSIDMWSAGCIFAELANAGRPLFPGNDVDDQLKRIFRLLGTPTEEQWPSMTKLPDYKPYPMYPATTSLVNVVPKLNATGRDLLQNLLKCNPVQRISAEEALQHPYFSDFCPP
Sequence of Cyclin-dependent kinase 5/CDK5 activator 1 (Q15078 whole entry, further chain): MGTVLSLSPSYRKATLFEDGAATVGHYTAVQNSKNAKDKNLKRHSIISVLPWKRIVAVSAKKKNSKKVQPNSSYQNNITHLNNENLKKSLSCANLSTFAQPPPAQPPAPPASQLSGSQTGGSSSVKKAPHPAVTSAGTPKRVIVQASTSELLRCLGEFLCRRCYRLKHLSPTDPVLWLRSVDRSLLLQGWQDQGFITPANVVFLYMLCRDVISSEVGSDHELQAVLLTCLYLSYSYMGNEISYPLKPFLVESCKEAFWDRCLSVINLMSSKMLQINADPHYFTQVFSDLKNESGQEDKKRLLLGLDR

[7] = Inhibition of porcine brain CK1 delta/epsilon using RRKHAAIGpSAYSITA as substrate incubated for 30 mins in presence of [gamma-33 P] ATP by liquid scintillation counting analysis; design: species or system Sus scrofa
[8] = target: Dual specificity tyrosine-phosphorylation-regulated kinase 1B (Homo sapiens, UniProt Q9Y463); test: Inhibition of GST-tagged human recombinant DYRK1B expressed in Escherichia coli using RS peptide as substrate incubated for 30 mins in presence of [gamma-33 P] ATP by liquid scintillation counting analysis
Sequence of Dual specificity tyrosine-phosphorylation-regulated kinase 1B (Q9Y463 whole entry): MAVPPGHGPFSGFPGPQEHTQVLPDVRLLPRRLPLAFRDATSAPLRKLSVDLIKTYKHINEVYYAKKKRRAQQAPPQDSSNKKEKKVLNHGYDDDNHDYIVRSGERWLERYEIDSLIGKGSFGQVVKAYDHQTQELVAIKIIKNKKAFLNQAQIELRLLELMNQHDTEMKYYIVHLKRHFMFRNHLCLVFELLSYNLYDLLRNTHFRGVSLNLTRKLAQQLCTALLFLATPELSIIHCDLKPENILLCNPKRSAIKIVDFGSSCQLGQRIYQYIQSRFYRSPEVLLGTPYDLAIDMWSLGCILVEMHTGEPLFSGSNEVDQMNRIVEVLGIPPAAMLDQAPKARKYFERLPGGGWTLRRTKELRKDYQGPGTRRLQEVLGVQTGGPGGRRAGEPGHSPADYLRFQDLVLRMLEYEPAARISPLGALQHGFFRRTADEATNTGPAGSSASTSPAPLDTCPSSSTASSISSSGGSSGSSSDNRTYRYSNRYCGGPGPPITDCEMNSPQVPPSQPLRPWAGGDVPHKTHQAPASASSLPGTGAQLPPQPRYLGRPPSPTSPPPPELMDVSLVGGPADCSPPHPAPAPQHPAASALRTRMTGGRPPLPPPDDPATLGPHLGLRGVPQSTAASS

[9] = Cytotoxicity against human KB cells assessed as growth inhibition at 1 uM after 72 hrs by MTS assay; type: toxicity, cell-based; conditions: for inhibition at 72 h, 1 µM: KB cells, read-out: GI; for growth inhibition (GI): kb, 72 h, 1 µM
[10] = target: Glycogen synthase kinase-3 (Sus scrofa, UniProt B2LUN4+I6LNT8); test: Inhibition of porcine brain GSK3alpha/beta using GS-1 as substrate incubated for 30 mins in presence of [gamma-33 P] ATP by liquid scintillation counting analysis

Sequence of Dual specificity protein kinase CLK1 (P49759 whole entry): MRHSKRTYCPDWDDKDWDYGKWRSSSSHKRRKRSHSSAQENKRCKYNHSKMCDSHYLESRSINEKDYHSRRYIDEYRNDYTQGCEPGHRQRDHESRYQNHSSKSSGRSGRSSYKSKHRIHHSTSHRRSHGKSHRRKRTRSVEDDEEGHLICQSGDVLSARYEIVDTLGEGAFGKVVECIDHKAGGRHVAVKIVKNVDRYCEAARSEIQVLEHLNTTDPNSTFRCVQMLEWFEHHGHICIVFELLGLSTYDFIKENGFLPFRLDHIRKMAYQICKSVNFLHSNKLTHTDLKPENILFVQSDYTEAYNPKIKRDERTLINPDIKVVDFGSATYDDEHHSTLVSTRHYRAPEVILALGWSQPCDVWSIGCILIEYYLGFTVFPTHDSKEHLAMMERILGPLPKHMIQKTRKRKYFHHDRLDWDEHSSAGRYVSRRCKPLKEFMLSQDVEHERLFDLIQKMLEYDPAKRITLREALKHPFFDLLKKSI

| Structure (SMILES) | IC50 [1] | IC50 [2] | IC50 [3] | IC50 [4] | IC50 [5] | IC50 [6] | IC50 [7] | IC50 [8] | inhibition at 72 h, 1 µM [9] | IC50 [10] | growth inhibition (GI) [9] |
| --- | --- | --- | --- | --- | --- | --- | --- | --- | --- | --- | --- |
| N#C/C(=C\c1cccnc1)c1c[nH]c2ncccc12 | 16 nM | 47 nM | > 10 µM | 21 nM | 4.6 µM | 0.13 µM | > 10 µM | 240 nM | 29% | 0.72 µM | – |
| COc1ccc2c(-c3ccncc3)c[nH]c2n1 | 430 nM | 110 nM | 6.1 µM | 5800 nM | 3.5 µM | 7 µM | > 10 µM | 220 nM | – | > 10 µM | Non-Toxic |
| N#Cc1cc2ccncc2c2[nH]c3ccccc3c12 | 170 nM | 180 nM | 1.8 µM | 370 nM | 1.1 µM | 6 µM | > 10 µM | 260 nM | 3% | 2.4 µM | – |
| COc1cccc2[nH]c3c4ccncc4cc(C#N)c3c12 | 620 nM | 100 nM | > 10 µM | 850 nM | 4 µM | > 10 µM | > 10 µM | > 10000 nM | 13% | > 10 µM | – |
| COc1ccc2c(/C(C#N)=C/c3cccnc3)c[nH]c2n1 | 230 nM | 71 nM | > 10 µM | 180 nM | 2.3 µM | > 10 µM | > 10 µM | 100 nM | – | > 10 µM | Non-Toxic |
